Measurements reported in patent US20230053540A1, “TREATMENT OF LIVER INJURY” (Massachusetts Institute of Technology, priority 2019, published 2023).

Test system: hepatocytes
Assay: Seq-Well scRNA-Seq of hepatocytes after APAP overdose (signature scores, DEG vs untreated)
Assay type: in vivo, mouse
Conditions: APAP vs UT, composite DEG

Compound: CC(=O)Nc1ccc(O)cc1 [APAP, acetaminophen]
- Ndufs4 logFC: −0.3132
- Ndufs8 logFC: −0.3614
- Ndufv2 logFC: −0.3276
- Ndufv3 logFC: −0.3971
- Neat1 logFC: 0.6374
- Nedd4l logFC: 0.2812
- Nedd8 logFC: −0.3564
- Nfe2l1 logFC: 0.2703
- Nid1 logFC: 0.3426
- Nme1 logFC: −0.4329
- Nop10 logFC: −0.2919
- Nop58 logFC: 0.6634
- Nr0b2 logFC: −0.293
- Nr1d2 logFC: 0.4306
- Nr1i3 logFC: 0.4259
- Nr2f6 logFC: −0.3754
- Nrip1 logFC: 0.2729
- Oaf logFC: −0.7329
- Oat logFC: −1.225
- Orm1 logFC: 0.3651
- Osbpl1a logFC: 0.2728
- Osbpl9 logFC: 0.2788
- Ostc logFC: 0.2658
- Otc logFC: −0.299
- P4hb logFC: 0.4052
- Pabpc1 logFC: 0.4949
- Pacsin2 logFC: 0.3708
- Padi3 logFC: 0.2957
- Pak2 logFC: 0.2815
- Palld logFC: 0.3414
- Pank1 logFC: −0.3527
- Paqr9 logFC: −0.3323
- Pbld1 logFC: −0.4425
- Pcbd1 logFC: −0.6878
- Pcbp2 logFC: 0.3103
- Pck1 logFC: −0.6522
- Pdia3 logFC: 0.5938
- Pecr logFC: −0.3981
- Pex11a logFC: 0.3508
- Pgrmc1 logFC: 0.3502
- Phc2 logFC: 0.312
- Phf20l1 logFC: 0.3085
- Phlda1 logFC: 0.5492
- Pigr logFC: 0.3868
- Pipox logFC: 0.2725
- Pla2g7 logFC: 0.2823
- Plek logFC: 0.3089
- Plin2 logFC: 1.461
- Plin5 logFC: 0.3521
- Plk3 logFC: 0.4166
- Plscr1 logFC: 0.4445
- Pnkd logFC: −0.2928
- Pnpla7 logFC: −0.3016
- Pnpla8 logFC: 0.2956
- Pon1 logFC: −0.6858
- Por logFC: 0.336
- Ppara logFC: 0.3589
- Ppp1r12a logFC: 0.3563
- Prdx1 logFC: −0.5292
- Prdx4 logFC: −0.4176
- Prdx5 logFC: −0.2821
- Prkaa2 logFC: 0.2636
- Prodh2 logFC: 0.3453
- Prox1 logFC: 0.2663
- Proz logFC: 0.2632
- Prrc2c logFC: 0.4393
- Psat1 logFC: 0.3012
- Psen2 logFC: −0.9474
- Psmb1 logFC: −0.3585
- Psmb3 logFC: −0.3303
- Psmb6 logFC: −0.3194
- Psme1 logFC: −0.394
- Psme4 logFC: 0.2626
- Ptp4a1 logFC: 0.2627
- Ptpn2 logFC: 0.2734
- Ptprc logFC: 0.4165
- Ptprf logFC: 0.3071
- Purb logFC: 0.3525
- Pxk logFC: 0.2819
- Pxmp2 logFC: −0.3671
- Pzp logFC: 0.416
- Rarres1 logFC: −0.4556
- Rbm25 logFC: 0.4215
- Rcan1 logFC: 0.7073
- Rdh7 logFC: −0.4186
- Rdx logFC: 0.3736
- Reep3 logFC: 0.409
- Reep6 logFC: 0.5143
- Rell1 logFC: 0.5912
- Retnlg logFC: 0.3751
- Rexo2 logFC: −0.3263
- Rgn logFC: −1.573
- Rgs16 logFC: 0.3226
- Rlim logFC: 0.3102
- Rnase4 logFC: −1.049
- Rnaseh2c logFC: −0.3257
- Rnf13 logFC: 0.2553
- Rnf144a logFC: 0.313
- Romo1 logFC: −0.3359
- Rpl4 logFC: 0.2839
- Rpl13a logFC: −0.3815
- Rpl13 logFC: −0.2997
- Rpl14 logFC: −0.2776
- Rpl38 logFC: 0.2543
- Rplp0 logFC: −0.4309
- Rps3 logFC: −0.3493
- Rps8 logFC: −0.2746
- Rps9 logFC: −0.3718
- Rps10 logFC: −0.3369
- Rps15 logFC: −0.4552
- Rps18 logFC: −0.4885
- Rps21 logFC: −0.3645
- Rps27l logFC: −0.8659
- Rsp14 logFC: −0.4021
- Saa2 logFC: 0.9645
- Sardh logFC: 0.2692
- Sbno1 logFC: 0.3671
- Sc4mol logFC: −0.3262
- Scaf11 logFC: 0.3598
- Scd1 logFC: 0.7267
- Sco2 logFC: −0.2929
- Scp2 logFC: −0.5191
- Sdhb logFC: −0.2896
- Sdhc logFC: 0.3944
- Sdr9c7 logFC: −0.26
- Sdsl logFC: 0.2593
- Sec14l2 logFC: −0.7897
- Sec31a logFC: 0.263
- Sec61b logFC: −0.2903
- Sec62 logFC: 0.2516
- Sel1l logFC: 0.336
- Selk logFC: −0.3383
- Serpina1b logFC: −0.3018
- Serpina1c logFC: −0.4026
- Serpina3m logFC: 0.9674
- Serpina3n logFC: 0.8483
- Serpina10 logFC: 0.565
- Serpina12 logFC: −0.4534
- Serpinf1 logFC: 0.3196
- Serping1 logFC: 0.4128
- Sf1 logFC: 0.3023
- Sfpq logFC: 0.394
- Sgk1 logFC: 0.2843
- Sh3bgrl logFC: 0.2513
- Sh3glb1 logFC: 0.326
- Shb logFC: 0.3152
- Shmt1 logFC: −0.3932
- Sirt3 logFC: −0.346
- Slc4a4 logFC: 0.4203
- Slc7a2 logFC: 0.3526
- Slc10a1 logFC: −0.3258
- Slc16a6 logFC: 0.9114
- Slc22a1 logFC: −0.7979
- Slc22a30 logFC: −0.3746
- Slc25a10 logFC: 0.3433
- Slc25a13 logFC: 0.2855
- Slc25a20 logFC: 0.38
- Slc25a47 logFC: 0.5027
- Slc27a2 logFC: 0.3853
- Slc27a5 logFC: 0.337
- Slc38a10 logFC: 0.2855
- Slc39a14 logFC: 1.013
- Slc40a1 logFC: 0.467
- Slco1b2 logFC: −1.087
- Slirp logFC: −0.3085
- Smap2 logFC: 0.3489
- Smdt1 logFC: −0.3673
- Smg1 logFC: 0.335
- Snord13 logFC: 0.2611
- Snx10 logFC: 0.2856
- Sod1 logFC: −0.4393
- Sord logFC: −0.3836
- Spp2 logFC: −0.3821
- Sptbn1 logFC: 0.4227
- Srebf1 logFC: 0.2762
- Srgn logFC: 0.9341
- Srp72 logFC: 0.3107
- Srpr logFC: 0.3052
- Srsf11 logFC: 0.4012
- Ssr3 logFC: 0.5218
- St3gal5 logFC: 0.6076
- Stbd1 logFC: −0.2732
- Steap4 logFC: 0.476
- Stk17b logFC: 0.2911
- Stom logFC: 0.3232
- Stt3b logFC: 0.3194
- Suco logFC: 0.251
- Suds3 logFC: 0.2539
- Sult1d1 logFC: 0.4599
- Supt6 logFC: 0.2913
- Surf4 logFC: 0.2586
- Syncrip logFC: 0.2748
- Tars logFC: 0.4921
- Tbl1xr1 logFC: 0.3075
- Tcea3 logFC: −0.355
- Tceb2 logFC: −0.3207
- Tfpi2 logFC: −0.3663
- Tgm2 logFC: 0.3993
- Tgoln1 logFC: 0.3883
- Timm8b logFC: −0.3936
- Timm13 logFC: −0.433
- Tjp1 logFC: 0.2862
